Data as given in ChEMBL document CHEMBL5696444 (Nat Commun, 2017).
The source made the active and inactive calls. The calls are words filed in the database; no cut-off is given here.

How the values were obtained:
HCT-116 [1] = test: Induction of cell cycle arrest in human HCT-116 cells assessed as G2/M phase at 10 uM incubated for 6 hrs by flow cytometry analysis (Rvb=25.8%); type: functional
[2] = biological target: Aurora kinase A (Homo sapiens) (UniProt O14965); test: Inhibition of AURKA (unknown origin) at 100 nM in the presence of ATP by Kinome scan method relative to control
[3] = biological target: Serine/threonine-protein kinase Nek1 (Homo sapiens) (UniProt Q96PY6); test: Inhibition of NEK1 (unknown origin) at 100 nM in the presence of ATP by Kinome scan method relative to control
HCT-116 [4] = test: Induction of apoptosis in human HCT-116 cells assessed as early apoptosis at 0.5 uM incubated for > 6 hrs by annexin V/PI staining based analysis (Rvb=3.29%); type: functional
[5] = biological target: Mitogen-activated protein kinase 8 (Homo sapiens) (UniProt P45983); test: Inhibition of MAPK8 (unknown origin) at 1000 nM in the presence of ATP by Kinome scan method relative to control
HCT-116 [6] = test: Induction of cell cycle arrest in human HCT-116 cells assessed as S phase at 1 uM incubated for 6 hrs by flow cytometry analysis (Rvb=39.3%); type: functional
HCT-116 [7] = test: Induction of cell cycle arrest in human HCT-116 cells assessed as sub G0/G1 phase at 10 uM incubated for 6 hrs by flow cytometry analysis (Rvb=1.6%); type: functional
[8] = biological target: Glycogen synthase kinase-3 beta (Homo sapiens) (UniProt P49841); test: Inhibition of GSK3B (unknown origin) at 100 nM in the presence of ATP by Kinome scan method relative to control
[9] = biological target: Dual specificity tyrosine-phosphorylation-regulated kinase 1B (Homo sapiens, UniProt Q9Y463); test: Inhibition of DYRK1B (unknown origin) at 123 nM in the presence of ATP by Kinome scan method relative to control; details: time > 6.0 hrs
[10] = biological target: Glycogen synthase kinase-3 beta (Homo sapiens) (UniProt P49841); test: Inhibition of GSK3B (unknown origin) at 1000 nM in the presence of ATP by Kinome scan method relative to control
HCT-116 [11] = test: Induction of cell cycle arrest in human HCT-116 cells assessed as G0/G1 phase at 10 uM incubated for 6 hrs by flow cytometry analysis (Rvb=35.0%); type: functional
[12] = biological target: Dual specificity protein kinase CLK1 (Homo sapiens) (UniProt P49759); test: Inhibition of CLK (unknown origin) in human HCT-116 cells assessed as decrease in SRSF6 phosphorylation level at 0.5 to 1.0 uM incubated for 6 hrs by immunoblot analysis; type: cell-based; details: dose 0.5-1 µM
HCT-116 [13] = test: Induction of cell cycle arrest in human HCT-116 cells assessed as G2/M phase at 1 uM incubated for 24 hrs by flow cytometry analysis (Rvb=17.9%); type: functional
[14] = biological target: Protein kinase C alpha type (Homo sapiens) (UniProt P17252); test: Inhibition of PRKCA (unknown origin) at 100 nM in the presence of ATP by Kinome scan method relative to control
[15] = biological target: Homeodomain-interacting protein kinase 2 (Homo sapiens) (UniProt Q9H2X6); test: Inhibition of HIPK2 (unknown origin) at 100 nM in the presence of ATP by Kinome scan method relative to control
[16] = biological target: T1, Dual specificity tyrosine-phosphorylation-regulated kinase 1A (Homo sapiens, UniProt Q13627); test: Inhibition of DYRK1A (unknown origin) at 123 nM in the presence of ATP by Kinome scan method relative to control; details: time > 6.0 hrs
Homo sapiens = species: Homo sapiens; test: Inhibition of CDK2/cyclin A (unknown origin) at 1000 nM in the presence of ATP by Kinome scan method relative to control
[17] = biological target: Serine/threonine-protein kinase B-raf (Homo sapiens) (UniProt P15056); test: Inhibition of BRAF (unknown origin) at 1000 nM in the presence of ATP by Kinome scan method relative to control
HCT-116 [18] = test: Induction of cell cycle arrest in human HCT-116 cells assessed as G0/G1 phase at 0.5 uM incubated for 6 hrs by flow cytometry analysis (Rvb=35.0%); type: functional
HCT-116 [19] = test: Induction of apoptosis in human HCT-116 cells assessed as early apoptosis at 1 uM incubated for > 6 hrs by annexin V/PI staining based analysis (Rvb=3.29%); type: functional
[20] = biological target: T1, Dual specificity tyrosine-phosphorylation-regulated kinase 1A; test: Inhibition of DYRK1A (unknown origin) at 1110 nM in the presence of ATP by Kinome scan method relative to control; details: time > 6.0 hrs
HCT-116 [21] = test: Induction of apoptosis in human HCT-116 cells assessed as late apoptosis at 0.5 uM incubated for > 6 hrs by annexin V/PI staining based analysis (Rvb=6.12%); type: functional
[22] = biological target: Serine/threonine-protein kinase mTOR (Homo sapiens) (UniProt P42345); test: Inhibition of FRAP1 (unknown origin) at 1000 nM in the presence of ATP by Kinome scan method relative to control
HCT-116 [23] = test: Induction of apoptosis in human HCT-116 cells assessed as late apoptosis at 5 uM incubated for > 6 hrs by annexin V/PI staining based analysis (Rvb=6.12%); type: functional
[24] = biological target: Dual specificity tyrosine-phosphorylation-regulated kinase 4 (Homo sapiens) (UniProt Q9NR20); test: Inhibition of DYRK4 (unknown origin) at 123 nM in the presence of ATP by Kinome scan method relative to control; details: time > 6.0 hrs
[25] = biological target: Cyclin-dependent kinase 1/cyclin B1 (Homo sapiens) (UniProt P06493+P14635); test: Inhibition of CDK1/cyclin B (unknown origin) at 1000 nM in the presence of ATP by Kinome scan method relative to control; type: protein-complex assay
[26] = biological target: PI3-kinase p110-alpha/p85-alpha (Homo sapiens) (UniProt P27986+P42336); test: Inhibition of PIK3CA/PIK3R1 (unknown origin) at 100 nM in the presence of ATP by Kinome scan method relative to control; type: protein-complex assay
[27] = biological target: Rho-associated protein kinase 1 (Homo sapiens) (UniProt Q13464); test: Inhibition of ROCK1 (unknown origin) at 100 nM in the presence of ATP by Kinome scan method relative to control
[28] = biological target: SRSF protein kinase 2 (Homo sapiens) (UniProt P78362); test: Inhibition of SRPK2 (unknown origin) at 123 nM in the presence of ATP by Kinome scan method relative to control; details: time > 6.0 hrs
[29] = biological target: Tyrosine-protein kinase JAK2 (Homo sapiens) (UniProt O60674); test: Inhibition of JAK2 (unknown origin) at 1000 nM in the presence of ATP by Kinome scan method relative to control
[30] = biological target: Serine/threonine-protein kinase pim-1 (Homo sapiens) (UniProt P11309); test: Inhibition of PIM1 (unknown origin) at 1000 nM in the presence of ATP by Kinome scan method relative to control
[31] = biological target: T1, Dual specificity tyrosine-phosphorylation-regulated kinase 1A; test: Inhibition of DYRK1A (unknown origin) using ULight-MBP peptide as substrate incubated for 10 mins in presence of ATP incubated for 45 mins by LANCE Ultra kinase assay

Glycogen synthase kinase-3 beta (Homo sapiens), sequence (P49841 whole entry, looked up): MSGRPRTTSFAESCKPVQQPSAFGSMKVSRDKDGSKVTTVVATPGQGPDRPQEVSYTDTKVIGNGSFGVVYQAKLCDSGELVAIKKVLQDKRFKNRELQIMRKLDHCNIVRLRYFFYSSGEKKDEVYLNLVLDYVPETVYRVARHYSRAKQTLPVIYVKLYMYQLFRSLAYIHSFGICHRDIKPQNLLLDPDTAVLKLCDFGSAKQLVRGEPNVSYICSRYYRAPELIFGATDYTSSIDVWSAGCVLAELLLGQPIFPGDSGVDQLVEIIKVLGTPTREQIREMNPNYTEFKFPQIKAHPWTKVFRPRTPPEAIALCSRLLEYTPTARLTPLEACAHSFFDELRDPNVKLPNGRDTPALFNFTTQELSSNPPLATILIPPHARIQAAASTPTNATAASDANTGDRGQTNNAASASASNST
Aurora kinase A (Homo sapiens), sequence (O14965 whole entry): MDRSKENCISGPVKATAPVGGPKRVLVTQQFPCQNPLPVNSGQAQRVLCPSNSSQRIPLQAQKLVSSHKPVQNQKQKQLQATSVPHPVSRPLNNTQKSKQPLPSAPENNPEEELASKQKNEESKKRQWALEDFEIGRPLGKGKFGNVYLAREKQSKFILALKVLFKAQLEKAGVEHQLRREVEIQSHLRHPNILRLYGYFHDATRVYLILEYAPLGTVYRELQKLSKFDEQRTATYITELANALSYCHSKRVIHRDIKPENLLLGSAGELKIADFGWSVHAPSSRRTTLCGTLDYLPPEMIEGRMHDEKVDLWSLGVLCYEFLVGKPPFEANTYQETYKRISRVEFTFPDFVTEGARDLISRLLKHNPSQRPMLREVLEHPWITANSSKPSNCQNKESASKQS
Homeodomain-interacting protein kinase 2 (Homo sapiens), sequence (Q9H2X6 whole entry, looked up): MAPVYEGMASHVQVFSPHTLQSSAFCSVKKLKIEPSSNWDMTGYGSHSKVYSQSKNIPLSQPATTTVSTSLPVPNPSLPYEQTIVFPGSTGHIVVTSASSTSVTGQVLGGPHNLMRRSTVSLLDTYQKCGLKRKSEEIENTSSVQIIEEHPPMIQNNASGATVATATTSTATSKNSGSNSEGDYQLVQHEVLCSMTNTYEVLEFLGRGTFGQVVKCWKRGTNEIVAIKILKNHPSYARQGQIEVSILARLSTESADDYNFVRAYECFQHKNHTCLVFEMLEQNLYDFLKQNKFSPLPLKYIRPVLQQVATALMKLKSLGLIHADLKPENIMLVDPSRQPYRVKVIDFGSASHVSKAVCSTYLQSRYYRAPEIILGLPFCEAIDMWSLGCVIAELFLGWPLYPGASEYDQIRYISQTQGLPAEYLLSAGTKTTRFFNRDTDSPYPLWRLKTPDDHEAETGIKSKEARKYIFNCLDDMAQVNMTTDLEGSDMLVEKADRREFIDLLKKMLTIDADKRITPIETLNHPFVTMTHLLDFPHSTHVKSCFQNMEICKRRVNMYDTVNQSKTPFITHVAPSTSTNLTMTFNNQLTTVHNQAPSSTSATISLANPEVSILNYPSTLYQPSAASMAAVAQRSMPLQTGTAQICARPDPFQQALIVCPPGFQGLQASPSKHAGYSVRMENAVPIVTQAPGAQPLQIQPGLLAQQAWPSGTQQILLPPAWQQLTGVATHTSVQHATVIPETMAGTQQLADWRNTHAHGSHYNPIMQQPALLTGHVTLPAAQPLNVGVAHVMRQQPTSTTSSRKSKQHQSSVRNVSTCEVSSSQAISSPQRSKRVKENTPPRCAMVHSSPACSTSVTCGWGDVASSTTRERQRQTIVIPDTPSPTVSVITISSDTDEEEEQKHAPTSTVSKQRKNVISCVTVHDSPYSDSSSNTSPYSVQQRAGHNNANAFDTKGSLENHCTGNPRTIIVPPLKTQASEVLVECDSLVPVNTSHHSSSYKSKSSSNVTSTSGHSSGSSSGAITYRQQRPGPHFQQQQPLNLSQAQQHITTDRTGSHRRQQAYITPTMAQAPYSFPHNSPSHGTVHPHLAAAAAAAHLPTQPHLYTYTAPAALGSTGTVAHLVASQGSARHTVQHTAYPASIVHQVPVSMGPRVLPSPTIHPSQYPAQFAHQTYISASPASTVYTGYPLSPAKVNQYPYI
Mitogen-activated protein kinase 8 (Homo sapiens), sequence (P45983 whole entry): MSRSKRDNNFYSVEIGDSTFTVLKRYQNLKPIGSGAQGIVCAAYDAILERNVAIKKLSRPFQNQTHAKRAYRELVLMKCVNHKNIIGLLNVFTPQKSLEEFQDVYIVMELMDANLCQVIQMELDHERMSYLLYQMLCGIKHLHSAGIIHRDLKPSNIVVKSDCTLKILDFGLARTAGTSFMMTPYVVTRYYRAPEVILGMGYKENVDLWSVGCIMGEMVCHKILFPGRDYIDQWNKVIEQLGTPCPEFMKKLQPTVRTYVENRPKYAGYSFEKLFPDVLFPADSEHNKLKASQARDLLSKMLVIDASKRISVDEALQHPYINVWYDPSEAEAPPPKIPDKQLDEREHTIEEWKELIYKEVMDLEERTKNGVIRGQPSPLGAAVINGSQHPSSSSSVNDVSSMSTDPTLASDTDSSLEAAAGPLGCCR
Cyclin-dependent kinase 1/cyclin B1 (Homo sapiens), sequence (P06493 whole entry, looked up): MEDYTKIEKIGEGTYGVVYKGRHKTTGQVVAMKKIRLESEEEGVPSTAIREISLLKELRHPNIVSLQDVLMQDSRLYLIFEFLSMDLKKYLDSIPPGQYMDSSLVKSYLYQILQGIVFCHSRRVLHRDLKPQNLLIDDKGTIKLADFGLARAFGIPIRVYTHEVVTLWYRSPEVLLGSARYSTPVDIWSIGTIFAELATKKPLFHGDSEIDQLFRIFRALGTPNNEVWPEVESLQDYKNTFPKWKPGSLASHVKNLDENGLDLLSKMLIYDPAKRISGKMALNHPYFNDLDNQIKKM
Cyclin-dependent kinase 1/cyclin B1 (Homo sapiens), sequence (P14635 whole entry, looked up): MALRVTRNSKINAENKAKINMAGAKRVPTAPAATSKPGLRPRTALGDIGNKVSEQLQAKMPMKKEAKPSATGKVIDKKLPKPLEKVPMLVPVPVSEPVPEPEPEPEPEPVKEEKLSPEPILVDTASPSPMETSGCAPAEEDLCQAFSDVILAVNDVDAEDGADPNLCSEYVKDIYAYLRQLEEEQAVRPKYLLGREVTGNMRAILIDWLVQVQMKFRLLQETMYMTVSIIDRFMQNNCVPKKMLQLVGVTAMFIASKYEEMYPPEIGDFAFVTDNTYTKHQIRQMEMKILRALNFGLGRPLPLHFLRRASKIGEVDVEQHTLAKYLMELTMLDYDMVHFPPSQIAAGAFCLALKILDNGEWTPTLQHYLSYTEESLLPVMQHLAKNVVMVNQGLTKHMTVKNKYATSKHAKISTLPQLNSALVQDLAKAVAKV
Dual specificity tyrosine-phosphorylation-regulated kinase 1B, sequence (Q9Y463 whole entry, looked up): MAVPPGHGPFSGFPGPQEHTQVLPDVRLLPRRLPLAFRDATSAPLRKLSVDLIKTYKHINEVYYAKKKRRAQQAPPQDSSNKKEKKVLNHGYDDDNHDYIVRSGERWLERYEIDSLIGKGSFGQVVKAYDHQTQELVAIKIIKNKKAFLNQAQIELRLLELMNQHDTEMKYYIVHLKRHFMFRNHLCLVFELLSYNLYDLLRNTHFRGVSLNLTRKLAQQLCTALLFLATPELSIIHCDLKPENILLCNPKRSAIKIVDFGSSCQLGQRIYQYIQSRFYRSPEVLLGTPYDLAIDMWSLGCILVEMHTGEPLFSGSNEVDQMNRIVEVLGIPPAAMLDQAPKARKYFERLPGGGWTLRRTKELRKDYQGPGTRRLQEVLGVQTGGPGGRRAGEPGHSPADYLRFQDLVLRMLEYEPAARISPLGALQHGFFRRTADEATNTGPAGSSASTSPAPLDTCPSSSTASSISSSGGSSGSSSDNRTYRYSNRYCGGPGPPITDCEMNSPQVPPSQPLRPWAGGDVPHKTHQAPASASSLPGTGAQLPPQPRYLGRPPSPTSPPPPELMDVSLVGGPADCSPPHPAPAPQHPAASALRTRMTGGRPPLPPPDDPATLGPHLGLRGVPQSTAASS
Dual specificity tyrosine-phosphorylation-regulated kinase 4 (Homo sapiens), sequence (Q9NR20 whole entry): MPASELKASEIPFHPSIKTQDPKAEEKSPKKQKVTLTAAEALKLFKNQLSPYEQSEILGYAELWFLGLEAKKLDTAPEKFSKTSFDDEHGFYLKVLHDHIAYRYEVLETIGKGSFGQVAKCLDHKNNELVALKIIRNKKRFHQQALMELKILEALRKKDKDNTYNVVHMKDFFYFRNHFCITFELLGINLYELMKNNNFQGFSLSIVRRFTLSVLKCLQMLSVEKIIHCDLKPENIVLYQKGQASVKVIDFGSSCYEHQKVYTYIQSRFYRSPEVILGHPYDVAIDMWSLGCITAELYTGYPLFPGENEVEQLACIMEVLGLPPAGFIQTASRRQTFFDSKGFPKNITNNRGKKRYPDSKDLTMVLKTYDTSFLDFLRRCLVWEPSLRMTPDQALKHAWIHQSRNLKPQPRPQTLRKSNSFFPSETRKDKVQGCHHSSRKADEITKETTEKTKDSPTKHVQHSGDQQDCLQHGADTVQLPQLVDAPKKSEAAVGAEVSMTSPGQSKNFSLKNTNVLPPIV

Q: What does the source list for `CN1CCN(C(=O)C(C)(C)c2ccc(C(=O)Nc3cn4cc(-c5ccncc5)ccc4n3)cc2)CC1` [T3-CLK]?
A: Activity (HCT-116 [1]): 26.3%; inhibition [2]: 5%; inhibition [3]: 4%; Activity (HCT-116 [4]): 3.04%; inhibition [5]: 3%; Activity (HCT-116 [6]): 47%; Activity (HCT-116 [7]): 1.7%; inhibition [8]: -3%; inhibition [9]: 63%; inhibition [10]: -3%; Activity (HCT-116 [11]): 28.4%; inhibition [12]: Active; Activity (HCT-116 [13]): 46%; inhibition [14]: 4%; inhibition [15]: -4%; inhibition [16]: 74%; inhibition (Homo sapiens): 3%; inhibition [17]: 17%; Activity (HCT-116 [18]): 18.4%; Activity (HCT-116 [19]): 3.4%; inhibition [20]: 97%; Activity (HCT-116 [21]): 6.85%; inhibition [22]: -9%; Activity (HCT-116 [23]): 8.23%; inhibition [24]: -8%; inhibition [25]: 7%; inhibition [26]: 4%; inhibition [27]: 5%; inhibition [28]: 2%; inhibition [29]: -6%; inhibition [30]: 11%; IC50 [31]: 0.26 µM
